Reference: ChEMBL document CHEMBL1152393, “Dopamine D(3) receptor antagonists: The quest for a potentially selective PET ligand. Part two: Lead optimization” (Bioorg Med Chem Lett, 2009)

System: Liver microsomes
Settings: human

`N#Cc1cc(N2CCN(CCN3CCC(C(F)(F)F)CC3)C2=O)ccc1F` gave a CL of 9.1 mL/min/g.
`N#Cc1cccc(N2CCN(CCN3Cc4ccccc4C3)C2=O)c1` showed a CL of 1.6 mL/min/g.
`O=C1N(CCN2Cc3ccccc3C2)CCN1c1cccc(Cl)c1` showed a CL of 8.9 mL/min/g.
Work on `O=C1N(CCN2CCC(C(F)(F)F)CC2)CCN1c1cccc(Cl)c1` yielded a CL of 17.6 mL/min/g.
In the case of `CC(C)N1CCN(CCN2CCN(c3cccc(C#N)c3)C2=O)CC1`, the CL is reported as < 0.5 mL/min/g.
